≈ marks a conversion by molar mass, not a printed value.
How the values were obtained:
[1] = Fraction unbound in mouse plasma at 0.5 uM by equilibrium dialysis method; type: ADME, cell-free
[2] = target: T1, D(4) dopamine receptor (Homo sapiens, UniProt P21917); test: Displacement of [3H]N-methylspiperone from human dopamine D4 receptor expressed in HEK293 cell membranes after 1 hr by scintillation counting method
T1 sequence (P21917 whole entry): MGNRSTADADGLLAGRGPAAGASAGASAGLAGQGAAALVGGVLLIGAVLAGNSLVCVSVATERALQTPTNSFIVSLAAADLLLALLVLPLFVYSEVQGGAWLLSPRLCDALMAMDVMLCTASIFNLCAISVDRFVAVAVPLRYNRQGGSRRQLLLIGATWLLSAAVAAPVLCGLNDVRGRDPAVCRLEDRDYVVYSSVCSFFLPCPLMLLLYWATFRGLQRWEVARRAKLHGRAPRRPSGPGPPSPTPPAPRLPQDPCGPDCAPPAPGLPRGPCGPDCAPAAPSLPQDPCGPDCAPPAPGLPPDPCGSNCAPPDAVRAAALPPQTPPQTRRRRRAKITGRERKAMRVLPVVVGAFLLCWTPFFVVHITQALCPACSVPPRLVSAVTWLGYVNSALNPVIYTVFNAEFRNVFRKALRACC

[3] = target: Muscarinic acetylcholine receptor M3 (Homo sapiens, UniProt P20309); test: Displacement of [3H]NMS from human muscarinic M3 receptor expressed in CHO cell membranes after 2 hrs by liquid scintillation counting method
Muscarinic acetylcholine receptor M3, sequence (P20309 whole entry): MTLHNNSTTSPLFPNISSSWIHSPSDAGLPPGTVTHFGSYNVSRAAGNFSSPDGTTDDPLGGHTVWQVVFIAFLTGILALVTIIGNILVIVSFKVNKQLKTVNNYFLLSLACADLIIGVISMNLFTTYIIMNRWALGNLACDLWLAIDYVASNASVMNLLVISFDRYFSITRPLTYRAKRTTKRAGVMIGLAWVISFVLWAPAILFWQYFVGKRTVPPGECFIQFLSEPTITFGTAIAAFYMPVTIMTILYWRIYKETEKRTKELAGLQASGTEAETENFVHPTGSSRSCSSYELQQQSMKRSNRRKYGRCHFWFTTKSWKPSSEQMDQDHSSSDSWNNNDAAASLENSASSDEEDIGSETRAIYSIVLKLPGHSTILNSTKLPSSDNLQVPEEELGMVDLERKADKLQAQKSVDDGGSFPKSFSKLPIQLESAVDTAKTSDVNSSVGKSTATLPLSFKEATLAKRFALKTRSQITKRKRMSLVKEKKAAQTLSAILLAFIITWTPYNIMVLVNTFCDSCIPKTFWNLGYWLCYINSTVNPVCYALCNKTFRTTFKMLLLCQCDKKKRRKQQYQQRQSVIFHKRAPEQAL

[4] = target: T2, Alpha-1B adrenergic receptor (Homo sapiens, UniProt P35368); test: Displacement of [3H]prazosin from human recombinant alpha-1B adrenergic receptor expressed in CHO cell membranes after 30 mins by liquid scintillation counting method
T2 sequence (P35368 whole entry): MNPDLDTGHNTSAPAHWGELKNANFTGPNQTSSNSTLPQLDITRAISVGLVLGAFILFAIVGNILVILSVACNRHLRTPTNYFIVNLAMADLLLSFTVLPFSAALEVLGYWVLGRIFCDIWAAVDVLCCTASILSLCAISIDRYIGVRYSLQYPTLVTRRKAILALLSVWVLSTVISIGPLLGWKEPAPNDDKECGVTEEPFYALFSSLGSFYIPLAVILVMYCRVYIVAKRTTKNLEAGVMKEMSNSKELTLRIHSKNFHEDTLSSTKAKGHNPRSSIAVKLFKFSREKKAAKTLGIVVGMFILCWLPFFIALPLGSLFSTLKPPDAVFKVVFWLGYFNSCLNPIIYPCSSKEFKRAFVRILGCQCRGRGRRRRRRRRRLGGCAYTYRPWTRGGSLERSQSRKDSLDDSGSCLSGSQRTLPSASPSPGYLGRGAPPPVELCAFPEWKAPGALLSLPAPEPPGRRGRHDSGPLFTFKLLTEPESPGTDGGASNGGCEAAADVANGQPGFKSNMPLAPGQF

[5] = target: T3, Alpha-1D adrenergic receptor (Homo sapiens, UniProt P25100); test: Displacement of [3H]prazosin from human recombinant alpha-1D adrenergic receptor expressed in CHO cell membranes after 30 mins by liquid scintillation counting method
T3 sequence (P25100 whole entry): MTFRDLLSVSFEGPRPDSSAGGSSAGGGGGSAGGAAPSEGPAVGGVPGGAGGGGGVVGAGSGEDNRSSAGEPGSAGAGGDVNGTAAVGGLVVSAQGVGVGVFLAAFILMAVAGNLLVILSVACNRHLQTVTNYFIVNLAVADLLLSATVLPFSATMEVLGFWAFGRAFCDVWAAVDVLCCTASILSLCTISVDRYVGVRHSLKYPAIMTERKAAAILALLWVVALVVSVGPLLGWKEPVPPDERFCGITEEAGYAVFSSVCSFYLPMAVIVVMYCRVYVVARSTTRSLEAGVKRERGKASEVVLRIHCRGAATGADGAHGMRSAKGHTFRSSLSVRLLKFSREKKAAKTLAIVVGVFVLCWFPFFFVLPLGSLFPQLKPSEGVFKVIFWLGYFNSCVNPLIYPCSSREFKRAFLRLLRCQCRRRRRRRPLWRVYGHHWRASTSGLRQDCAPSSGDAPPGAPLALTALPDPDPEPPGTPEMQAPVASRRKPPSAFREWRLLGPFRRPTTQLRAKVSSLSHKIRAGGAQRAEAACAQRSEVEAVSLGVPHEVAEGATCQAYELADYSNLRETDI

[6] = target: Sodium-dependent serotonin transporter (Rattus norvegicus, UniProt P31652); test: Displacement of [3H]-citalopram from SERT in Sprague-Dawley rat midbrain after 60 mins by scintillation counting method
Sodium-dependent serotonin transporter, sequence (P31652 whole entry, the tested form may be a part): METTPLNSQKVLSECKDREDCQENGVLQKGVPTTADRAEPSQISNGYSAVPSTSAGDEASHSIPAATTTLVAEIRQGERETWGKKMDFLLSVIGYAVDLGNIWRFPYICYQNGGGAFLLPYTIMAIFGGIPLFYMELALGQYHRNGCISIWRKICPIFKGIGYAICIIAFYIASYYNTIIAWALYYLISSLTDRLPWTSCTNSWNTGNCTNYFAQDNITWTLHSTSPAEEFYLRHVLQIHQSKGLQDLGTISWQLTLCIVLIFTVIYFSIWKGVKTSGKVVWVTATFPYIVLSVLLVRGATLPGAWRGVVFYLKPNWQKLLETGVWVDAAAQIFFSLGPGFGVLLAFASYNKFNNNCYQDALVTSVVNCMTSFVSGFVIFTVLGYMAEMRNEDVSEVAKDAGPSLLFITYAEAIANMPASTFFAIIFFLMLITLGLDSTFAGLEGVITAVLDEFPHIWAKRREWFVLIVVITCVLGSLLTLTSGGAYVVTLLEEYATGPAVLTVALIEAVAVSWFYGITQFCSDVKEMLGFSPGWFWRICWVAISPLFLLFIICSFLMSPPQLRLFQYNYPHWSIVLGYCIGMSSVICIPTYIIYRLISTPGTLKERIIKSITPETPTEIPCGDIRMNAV

[7] = target: T4, Muscarinic acetylcholine receptor M4 (Homo sapiens) (UniProt P08173); test: (§1) Antagonist activity at human SP/Myc epitope-tagged muscarinic M4 receptor expressed in HEK293T cells assessed as inhibition of carbachol-induced mVenus-fused beta-arrestin2 recruitment preincubated for 15 mins followed by carbachol induction measured after 2 mins by BRET assay; type: cell-based; conditions: HEK-293T
T4 sequence (whole entry): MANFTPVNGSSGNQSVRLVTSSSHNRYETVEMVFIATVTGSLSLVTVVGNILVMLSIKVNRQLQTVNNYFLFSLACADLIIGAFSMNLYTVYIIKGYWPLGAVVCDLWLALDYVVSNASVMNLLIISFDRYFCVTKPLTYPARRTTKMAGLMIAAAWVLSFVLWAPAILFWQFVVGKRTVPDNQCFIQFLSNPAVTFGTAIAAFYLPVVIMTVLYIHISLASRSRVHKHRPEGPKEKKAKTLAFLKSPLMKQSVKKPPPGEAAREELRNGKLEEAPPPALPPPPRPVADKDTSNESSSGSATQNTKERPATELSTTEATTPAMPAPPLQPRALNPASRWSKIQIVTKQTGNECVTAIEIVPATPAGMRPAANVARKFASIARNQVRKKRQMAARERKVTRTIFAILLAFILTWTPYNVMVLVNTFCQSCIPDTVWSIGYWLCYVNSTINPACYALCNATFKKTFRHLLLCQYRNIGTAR

[8] = target: T5, Muscarinic acetylcholine receptor M4 (Homo sapiens, UniProt P08173); test: as §1; type: cell-based, HEK-293T
T5 sequence (P08173 whole entry): T4 sequence (whole entry)

[9] = Kinetic solubility of the compound at pH 7.4 after 24 hrs by UPLC/UV/TOF-MS method; type: physicochemical; conditions: buffer, read-out: Kinetic_solubility

SMILES | fraction unbound at 0.5 µM [1] | Ki [2] | Ki [3] | Ki [4] | Ki [5] | Ki [6] | Imax [7] | IC50 [8] | solubility kinetic at 24 h [9]
O=C1CCc2ccccc2N1CCCN1CCN(c2ccccc2)CC1 | 0.097 | 0.00288 µM | 17.8 µM | 0.0741 µM | 0.0912 µM | 5.01 µM | 74% | 12 µM | 520 µM (≈ 182 µg/mL)
O=C1CCc2ccccc2N1CCCN1CCC(Cc2ccccc2)CC1 | 0.1 | 0.00126 µM | 3.02 µM | 0.224 µM | 0.302 µM | 0.0468 µM | 72% | 1.23 µM | 477 µM (≈ 173 µg/mL)
